Entries after “also recorded” stand apart in the source; their conditions may differ.
How the values were obtained:
[1] = tested on: hBM-MSCs; assay: adiponectin production during adipogenesis in hBM-MSCs; details: 20 µM
[2] = molecular target: T1, PPARδ (Homo sapiens, UniProt Q03181); assay: TR-FRET PPARδ corepressor assay; assay type: biochemical; details: SMRT-ID2 peptide
T1 sequence (Q03181 211-439 limits assumed): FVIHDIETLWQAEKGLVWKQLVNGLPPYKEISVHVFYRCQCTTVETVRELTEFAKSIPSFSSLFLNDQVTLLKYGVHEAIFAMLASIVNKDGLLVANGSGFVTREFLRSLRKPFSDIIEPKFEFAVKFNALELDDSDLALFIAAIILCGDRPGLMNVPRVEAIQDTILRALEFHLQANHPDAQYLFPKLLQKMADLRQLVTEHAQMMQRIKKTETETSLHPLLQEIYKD

[3] = molecular target: T2, PPARγ (Homo sapiens, UniProt P37231); assay: luciferase-reporter PPARγ transactivation assay in CV-1 cells; assay type: cell-based; details: 30 µM
T2 sequence (P37231 1-505): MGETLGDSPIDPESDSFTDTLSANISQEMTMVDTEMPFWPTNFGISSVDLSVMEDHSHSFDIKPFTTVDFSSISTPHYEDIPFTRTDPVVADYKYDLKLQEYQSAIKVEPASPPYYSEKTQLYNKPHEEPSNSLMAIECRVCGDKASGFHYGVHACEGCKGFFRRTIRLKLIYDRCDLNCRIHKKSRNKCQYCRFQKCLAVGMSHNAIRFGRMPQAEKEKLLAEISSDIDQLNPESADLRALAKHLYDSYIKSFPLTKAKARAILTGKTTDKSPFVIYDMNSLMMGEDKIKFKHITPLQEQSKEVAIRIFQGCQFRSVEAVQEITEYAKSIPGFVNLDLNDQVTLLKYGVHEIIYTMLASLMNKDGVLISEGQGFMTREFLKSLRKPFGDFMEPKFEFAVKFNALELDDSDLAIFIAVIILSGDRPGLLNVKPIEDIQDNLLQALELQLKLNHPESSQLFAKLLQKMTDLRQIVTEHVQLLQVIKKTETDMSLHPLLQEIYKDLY

[4] = tested on: ANGPTL4 and PDK4 gene transcription; assay: Q-RT-PCR of ANGPTL4 and PDK4 mRNA in hBM-MSCs; assay type: cell-based, human; details: 3rd day after induction of adipogenesis
[5] = tested on: STZ-induced diabetic C57BL/6J mice; assay: STZ-induced diabetes mouse model; assay type: in vivo; details: oral 20 mg/kg for 5 days, male C57BL/6J
[6] = molecular target: T3, PPARα (Homo sapiens, UniProt Q07869); assay: TR-FRET competitive binding assay PPARα; details: up to 20 µM
T3 sequence (Q07869 200-468 limits assumed): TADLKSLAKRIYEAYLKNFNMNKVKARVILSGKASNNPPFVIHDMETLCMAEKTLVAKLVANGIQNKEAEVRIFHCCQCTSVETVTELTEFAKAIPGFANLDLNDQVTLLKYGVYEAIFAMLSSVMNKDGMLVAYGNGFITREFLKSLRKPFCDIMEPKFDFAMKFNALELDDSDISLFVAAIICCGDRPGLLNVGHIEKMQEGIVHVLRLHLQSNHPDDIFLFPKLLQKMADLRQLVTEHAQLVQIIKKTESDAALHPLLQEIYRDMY

[7] = molecular target: T1, PPARδ; assay: TR-FRET PPARδ coactivator assay; assay type: biochemical; details: compound alone
[8] = molecular target: T4, PPARδ (Homo sapiens, UniProt Q03181); assay: TR-FRET competitive binding assay PPARδ; details: concentration-response
T4 sequence (Q03181 1-441): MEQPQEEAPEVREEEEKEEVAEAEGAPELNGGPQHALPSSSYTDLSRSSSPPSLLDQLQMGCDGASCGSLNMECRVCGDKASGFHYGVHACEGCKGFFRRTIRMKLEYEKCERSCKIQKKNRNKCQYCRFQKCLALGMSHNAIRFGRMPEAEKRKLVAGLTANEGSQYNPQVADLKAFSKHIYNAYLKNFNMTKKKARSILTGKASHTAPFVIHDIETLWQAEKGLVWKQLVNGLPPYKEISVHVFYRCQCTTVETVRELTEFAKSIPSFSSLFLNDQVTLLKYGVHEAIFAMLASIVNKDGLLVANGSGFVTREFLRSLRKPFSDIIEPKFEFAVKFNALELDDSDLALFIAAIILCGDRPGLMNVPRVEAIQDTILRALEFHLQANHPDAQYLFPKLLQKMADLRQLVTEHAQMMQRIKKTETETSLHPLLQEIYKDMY

[9] = molecular target: T5, PPARγ (Homo sapiens, UniProt P37231); assay: TR-FRET competitive binding assay PPARγ; details: concentration-response
T5 sequence (P37231 235-505 limits assumed): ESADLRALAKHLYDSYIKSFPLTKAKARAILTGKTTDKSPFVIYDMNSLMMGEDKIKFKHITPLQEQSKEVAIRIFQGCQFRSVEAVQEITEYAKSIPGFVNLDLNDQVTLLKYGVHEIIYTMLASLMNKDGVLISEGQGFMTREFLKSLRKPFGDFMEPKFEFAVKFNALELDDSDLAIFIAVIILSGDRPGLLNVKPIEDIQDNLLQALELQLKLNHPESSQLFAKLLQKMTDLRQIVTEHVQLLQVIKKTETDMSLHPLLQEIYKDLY

O[C@@H]1[C@H](O)CS[C@H]1n1cnc2c(NCc3cccc(I)c3)nc(Cl)nc21 [Compound 3a, (2R,3R,4S)-2-(2-Chloro-6-((3-iodobenzyl)amino)-9H-purin-9-yl)tetrahydrothiophene-3,4-diol]
rank as promoter of adipogenesis among tested A3 AR agonists and antagonists [1]: most potent promoter of adipogenesis
interaction between PPARδ and corepressor peptide [2]: promotion of the interaction between PPARδ and corepressor peptide
PPARγ transactivation compared to troglitazone [3]: did not achieve maximal PPARγ transactivation activity
ANGPTL4 mRNA level [4]: did not affect ANGPTL4 and PDK4 mRNA levels
PDK4 mRNA level [4]: did not affect ANGPTL4 and PDK4 mRNA levels
serum lactate levels [5]: tended to decrease the serum lactate levels
serum triglyceride levels [5]: downregulated serum triglyceride levels
serum glucose levels ([5]; 20 mg/kg): significantly decreased serum glucose levels; also recorded: dose-dependent
replacement of labeled PPARα ligand binding [6]: ≤ 50%
recruitment of labeled coactivator peptide to PPARδ [7]: no effect on the recruitment of the labeled coactivator peptide
PPARδ binding activity [8]: maximal PPARδ binding activity
PPARγ binding activity [9]: significant competitive binding activity
